Results: US20070004686A1, “Attractant for apple fruit moth and other insect pests of apple” (priority 2002, published 2007)
“Also recorded” adds a separate entry of the source.

Experiments:
Type in all cases: in vivo
[1] = tested on: other insects; test: Field trapping experiment, species specificity (other insects); settings: conditions tested (region, time of season)
Procedure: (§1) The compounds eliciting a strong response from antennae of female apple fruit moth and codling moth were then all tested in field traps for attraction of insects. Compounds were applied at a standard dose of 10 mg on red rubber septa, the septa were mounted in Tetra traps with sticky bottoms (Arm et al. 1979).
(§2) Its attractivity can be augmented by blending it with anethole. […] Both sexes of Argyresthia conjugella were attracted. Attraction of females is of importance for monitoring the migration of mated females into orchards. Attraction of females enables population control by mass-trapping, by an attracticide formulation, or by disruption of mating and oviposition behaviour.
Attraction of Argyresthia conjugella to 2-phenyl ethanol has not been reported, and the blend of 2-phenyl ethanol and anethole has not been described to be attractive for any other species.

[2] = tested on: apple fruit moth Argyresthia conjugella; test: Field trap attraction of apple fruit moth; settings: for relative attractiveness for apple fruit moth among compounds and blends tested: field traps, 10 mg on red rubber septa, males and females; for attraction of apple fruit moth females and males to field traps compared with blank: single compounds, 10 mg on red rubber septa in Tetra traps with sticky bottoms
Procedure: as §1
Furthermore, 2-phenyl ethanol was tested in a series of 2-component blends, including all compounds which had shown some attractiveness by themselves.
as §2

[3] = tested on: codling moth Cydia pomonella; test: Field trap attraction of codling moth; settings: traps baited with 10 mg
Procedure: as §1
In a wind tunnel experiment, a blend of farnesol and (E)-beta-farnesene released at 10 ng/min attracted within 2 min 35% of the males tested to the source (N=60).

| SMILES | attraction of apple fruit moth females and males to field traps compared with blank [2] | attraction of codling moth males to baited traps [3] | further results |
| --- | --- | --- | --- |
| OCCc1ccccc1 [2-phenyl ethanol, 2-Phenyl ethanol] | numbers significantly different from blank; also recorded: attractant for both males and females | – | attraction of insects other than Argyresthia conjugella (species specificity) [1]: no other insects were attracted in significant numbers; relative attractiveness for apple fruit moth among compounds and blends tested [2]: single most attractive compound |
| C=CC(C)(O)CCC=C(C)C (stereo not drawn) [linalool, Linalool] | numbers significantly different from blank | – | – |
| CC(C)=CCCC(C)=CCCC(C)=CCO [farnesol, Farnesol] | – | attracted in significant numbers | – |
| CC=Cc1ccc(OC)cc1 [anethole, Anethole] | numbers significantly different from blank | attracted in significant numbers | relative attractiveness for apple fruit moth among compounds and blends tested ([2]; listed as Anethole): only a weak attractant |
| CC/C=C\CCOC(=O)C(C)CC (stereo not drawn) [(Z)3-hexenyl 2-methylbutanoate] | – | attracted in significant numbers | – |
| CC/C=C\CC1=C(C)CCC1=O [cis-jasmone] | – | attracted in significant numbers | – |
| COc1ccc(C=O)cc1 [p-anisaldehyde, P-Anisaldehyde] | numbers significantly different from blank | attracted in significant numbers | – |
